Series [1] can be described thus: Octanol-aqueous phase distribution coefficient, log D of the compound at pH 5. The format is physicochemical.
Series [2] in a line: Octanol-aqueous phase distribution coefficient, log D of the compound at pH 6. It is filed as physicochemical.
A short description of series [3]: Octanol-aqueous phase distribution coefficient, log D of the compound at pH 8. It is filed as physicochemical.
Series [4] in a line: Uncoupling of oxidative phosphorylation in rat liver mitochondria at pH 6 relative to control. The format is functional.
Series [5] can be described thus: Uncoupling of oxidative phosphorylation in rat liver mitochondria at pH 8 relative to control. It is filed as functional.
Series [6] can be described thus: Uncoupling of oxidative phosphorylation in rat liver mitochondria at pH 5 relative to control. It is filed as functional.
Series [7] can be described thus: Uncoupling of oxidative phosphorylation in rat liver mitochondria at pH 7 relative to control. The format is functional.
The nature of series [8]: Octanol-aqueous phase distribution coefficient, log D of the compound at pH 7. It is filed as physicochemical.
Series [9] is described as follows: physchem.
Series [10] can be described thus: physchem. Conditions: octanol/aqueous phase.
Description: Octanol-aqueous phase partition coefficient, log P of the compound
Series [11] is described as follows: Dissociation constant, pKa of the compound at pH 5.3. It is filed as physicochemical.
A short description of series [12]: physchem. As to conditions: pH 6.8.
Description: Dissociation constant, pKa of the compound at pH 6.8
Another series relates to Colon. The series is described as follows: Drug absorption in anesthetized rat colon at pH 6.8. It is filed as ADME, tissue-based. As to conditions: in vivo.
For another series, the system named is Small intestine. The series is described as follows: Drug absorption in rat small intestine. The format is ADME, tissue-based. Conditions: in vivo.
Series [13] can be described thus: physchem. Conditions: octanol/aqueous phase. This is another data set of the same source.
The nature of series [14]: Octanol-aqueous phase […] of the compound at pH 7.10. It is filed as physicochemical. As to conditions: pH 7.1.
A short description of series [15]: Dissociation constant, pKa of the compound by titrimetric analysis. It is filed as physicochemical.
The nature of series [16]: physchem. Conditions: pH 7.8.
Description: Dissociation constant, pKa of the compound at pH 7.8
A further series deals with Neuron. Description: Increase in membrane potential in mollusc neurons assessed as conductance of potassium at pH 7.8 relative to salicylic acid. It is filed as functional, Mollusca.
For series [17] the following is noted: octanol/water.
Description: Octanol-water partition coefficient, log P of the compound

Structures are written as SMILES.

As to `Cc1cc([N+](=O)[O-])c(O)c([N+](=O)[O-])c1C`, the logD in [1] is 1.64; in series [2], 0.74; in series [3] it was -1.26; in series [8] it was -0.26. Moreover, the fold change (FC) in [4] stood at 4.51; in [5], 3.95; in series [6], 4.92; in series [7], 4.36. The compound also showed a pKa in the series “physchem [9]” of 4.2. In the series “physchem [10]”, the logP came out at 2.54.

Take `CC(C)Cc1cc([N+](=O)[O-])c(O)c([N+](=O)[O-])c1`: the logD is 2.52 in series [1], 1.62 in series [2], -0.38 in series [3] and 0.62 in [8]. Moreover, the fold change (FC) in series [4] turned out to be 4.88; in series [5], 4.48; in [6], 5.16; in series [7], 4.71. Besides, the pKa in the series “physchem [9]” worked out at 4.3. The logP in “physchem [10]” came to 3.32.

Take `Cc1cc(=O)n(-c2ccccc2)n1C` [ANTIPYRINE]: the figures for the pKa (in [11]; in the series “physchem [12]”) were 3.9 and 5.4, respectively. Also, the log%Abs stood at 1.3 in the series with Colon and 1.51 in the series with Small intestine.

Take `Cc1c(N(C)C)c(=O)n(-c2ccccc2)n1C` [AMINOPYRINE]: the pKa in series [11] turned out to be 0.3; in the series “physchem [12]”, 1.8. The log%Abs with Colon was 1.32; in the series with Small intestine, 1.52.

Take `CN1CC[C@]23CCCC[C@H]2[C@H]1Cc1ccc(O)cc13` [LEVORPHANOL]: the results for the logD (in the series “physchem [13]”; in [14]) were 0.02 and 3.02, respectively. Besides, the log%Abs with Colon is 1.11. In [15], this compound had a pKa of 3.

Consider `Nc1cccc([N+](=O)[O-])c1` [3-NITROANILINE], for which the logD in the series “physchem [13]” came out at 1.37. Moreover, the pKa came to 2.8 in series [11] and 4.3 in the series “physchem [12]”. The log%Abs came out at 1.68 with Colon and 1.89 in the series on Small intestine. This compound also returned a logP in “physchem [10]” of 1.37.

For `O=C(O)c1cc(Cl)cc(Cl)c1O`, in the series “physchem [13]”, the logD was -1.62. For the same compound, the pKa in “physchem [16]” is 5.5; in “physchem [9]”, 2.3. Besides, in the series on Neuron, the “fold change (FC)” value was found to be 1.48. For the same compound, the logP in [17] is reported as 3.88.

For `O=[N+]([O-])c1ccc(O)cc1` [P-NITROPHENOL], the logD is 1.96 in series [1], 1.96 in series [2], 0.96 in series [3] and 1.66 in series [8]. The fold change (FC) in series [4] came out at 3.37; in series [5] it was 3.39; in [6], 3.3; in [7], 3.51. Moreover, in the series “physchem [10]”, the logP is 1.96.

As to `CC(C)CCc1cc([N+](=O)[O-])c(O)c([N+](=O)[O-])c1`, the logD in [1] was 2.82; in series [2] it was 1.92; in series [3] it was -0.08; in series [8], 0.92. The fold change (FC) in series [4] is 5.42; in series [5], 4.92; in series [6], 5.5; in series [7], 5.18. The same compound registered a pKa in the series “physchem [9]” of 4.1. This compound showed a logP in “physchem [10]” of 3.82.

Consider `c1ccc(CC2=NCCN2)cc1` [TOLAZOLINE], for which, in “physchem [13]”, the logD was -2.35. For the same compound, the pKa came out at 5 in [11] and 3.5 in the series “physchem [12]”. For the same compound, the log%Abs worked out at 0.6 in the series with Colon and 0.78 in the series on Small intestine. The same compound returned a logP in “physchem [10]” of 2.65.

As to `Cc1ccc(N)cc1`, the results for the pKa (in [11]; in the series “physchem [12]”) were 0 and 1.5, respectively. For the same compound, the log%Abs in the series with Colon turned out to be 1.71; with Small intestine, 1.77.

Regarding `CC(=O)Nc1ccccc1` [ACETANILIDE], in “physchem [13]”, the logD was 1.16. In addition, the pKa in [11] was 5; in “physchem [12]”, 6.5. Moreover, the log%Abs with Colon was 1.56; in the series with Small intestine it was 1.62.

For the compound `CC(C)CCCCCc1cc([N+](=O)[O-])c(O)c([N+](=O)[O-])c1`, the logD in series [1] was determined as 4.32; in series [2], 3.42; in series [3], 1.42; in series [8], 2.42. Further, the fold change (FC) in series [4] came to 5.89; in [5] it was 5.41; in series [6], 6.08; in [7], 5.64. Also, the pKa in “physchem [9]” came to 4.1. The same compound came in with a logP in the series “physchem [10]” of 5.32.

As a reminder, the logD is the decadic logarithm of the distribution of all forms, ionised or not, between an organic phase and buffer at a given pH. A low value points to lower lipophilicity. Broadly, the pKa is the pH at which an ionisable group is half protonated. Lower therefore signals a stronger acid or weaker base. The term logP denotes the decadic logarithm of the partition coefficient of the neutral form, usually between octanol and water. Read a high logP as a more lipophilic compound.

(Values after ChEMBL document CHEMBL3272293, “Use of distribution coefficients in quantitative structure-activity relationships” (J Med Chem, 1977).)
